Source: patent US9771559B2, “Methods and compositions for stem cell self-renewal” (Stowers Institute for Medical Research, priority 2007, dated 2017)
Like-named read-outs stand apart in the source and are kept apart here.

Columns and labels:
[1] = system: lethally irradiated (10Gy) CD45.1^+ recipient mice; experiment: Transplantation of cultured LSK Flk2- cells into lethally irradiated recipients; donor repopulation in peripheral blood; format: in vivo; conditions: 28-day cultures; 1000 re-sorted LSK Flk2- cells (CD45.2+) + 2×10^5 competitor cells per mouse; peripheral blood at 4 weeks post-transplant
From the text: Cells were harvested from the wells prior to transplantation by pipetting up and down several times before transferring to a fresh tube. Residual was then collected by adding more media and repeating. Cells were washed in DMEM (Invitrogen, Cat. No. 31053) without phenol red and added to the appropriate number of whole bone marrow rescue cells from a congenic donor (for 200,000 rescue cells+1,000 re-sorted LSK Flk2^− cells (FIG. 3F-H) or the non-adherent product of 10 days culture of 100 LSK Flk2^− cultured cells (FIG. 3I-K) per mouse as indicated). Cells were injected into lethally irradiated (10 Grays, single dose) Ptprc (CD45.1^+) recipient mice through the tail vein using an insulin syringe.
Repopulation was measured at 4 weeks post-transplant by collection of peripheral blood, red blood cell lysis, and staining of CD45.1 (recipient) compared to CD45.2 (donor) engraftment using antibodies purchased from eBiosciences (FITC conjugated CD45.2 (Cat. No. 11-0454-85) and PE-Cy5 conjugated CD45.1 (Cat. No. 15-0453-82)). Mice transplanted with rescue/competitor cells only were used as a control to determine the limits of repopulation detection. Multi-lineage reconstitution was determined by CD3, B220 (for lymphoid) and Gr1, Mac-1 (for myeloid), as described above.
Cells cultured for 28 days in (1) media, (2) media+BpV(pic), (3) media+CHIR99021 and (4) media+CHIR99021 (1 μM)+BpV(pic) (200 nM) were re-sorted for LSK Flk2^− cells. One thousand LSK Flk2^− cells (CD45.2^+) from each media condition were transplanted into lethally irradiated (10Gy) CD45.1^+ recipient mice along with 2×10^5 congenic whole bone marrow competitor cells. At 4 weeks post-transplant, peripheral blood was analyzed for donor (FIG. 3G) and multi-lineage (FIG. 3H) engraftment. […] The horizontal-dashed line represents the average ‘engraftment’ of mice transplanted with competitor cells only and, thus, the limit of detectability for true engraftment.

LSK Flk2^− cells = experiment: Ex vivo culture and expansion of sorted LSK Flk2- cells in media with PTEN and/or GSK-3β inhibitors; format: cell-based, wild-type (C57Bl/6) mice; conditions: 1 μM CHIR99021, 200 nM BpV(pic); for expansion of LSK cells compared to control: 100 LSK Flk2- cells seeded, 17 and 23 days culture; for Fold expansion of LSK Flk2- cells after 28 days culture: compared to media without inhibitor
Protocol: LSK or LSK Flk2^− cells were sorted into 96-well U-bottom tissue culture plates at 100 cells/well with 200 μl media/well. Cells were incubated at 37° C., 5% O2, 5% CO2 (balance N2) for the indicated number of days. One-half total volume of media (see Table 1, below for the base media) was carefully pipetted from the top and replaced with fresh media every other day.
One hundred LSK Flk2^− cells were sorted from wild-type (C57Bl/6) mice and cultured in (1) media, (2) media+1 μM CHIR99021 (a GSK-3(3β inhibitor, a gift from Dr. Sheng Ding), (3) media+200 nM Dipotassium Bis-peroxo(picolinato)oxovanadate (BpV(pic), a PTEN inhibitor, available from Calbiochem, Cat. No. 203705), (4) media+1 μM CHIR99021+200 nM BpV(pic), (5) media+200 nM Shikonin (also a PTEN inhibitor, available from Calbiochem, Cat. No. 565850), and (6) media+200 nM Shikonin+1 μM CHIR99021. (FIGS. 3B-C). Cells were cultured as described above. Cells were examined at 17 days of culture (FIG. 3B, original magnification 100×) and 23 days (FIG. 3C, original magnification 40×).
LSK Flk2^− cells at 28 days culture in the indicated media conditions were examined (FIG. 3D, original magnification 200×).
Fold expansion of LSK Flk2^− cells after 28 days culture in (1) media, (2) media+BpV(pic), (3) media+CHIR99021, and (4) media+CHIR99021+BpV(pic) were analyzed.
One hundred LSK Flk2^− cells are sorted from wild-type (C57Bl/6) mice and are cultured in (1) media, (2) media+an GSK-3β antibody, (3) media+an anti-PTEN antibody, and (4) media+anti-GSK-3β and anti-PTEN antibodies. Cells are cultured as described above. Cells are examined at 9 days, 17 days and 23 days of culture.
One hundred LSK Flk2^− cells are sorted from wild-type (C57Bl/6) mice and are cultured in (1) media, (2) media+GSK-3β siRNA, (3) media+PTEN siRNA, and (4) media+GSK-3β siRNA and PTEN siRNA. Cells are cultured as described above. Cells are examined at 9 days, 17 days and 23 days of culture.

[2] = system: lethally irradiated (10Gy) CD45.1^+ recipient mice; experiment: Observation of transplant recipients for leukogenesis and health; conditions: recipients of LSK Flk2- cells cultured with inhibitor(s); up to 16 weeks post-transplantation
[3] = system: lethally irradiated (10Gy) CD45.1^+ recipient mice; conditions: mouse, in vivo

Compound | mice showing >1% engraftment [1] | expansion of LSK cells compared to control (LSK Flk2^− cells) | Fold expansion of LSK Flk2- cells after 28 days culture (LSK Flk2^− cells) | mice showing any sign of leukogenesis [2] | mice showing any sign of leukogenesis [3]
Cc1c[nH]c(-c2cnc(NCCNc3ccc(C#N)cn3)nc2-c2ccc(Cl)cc2Cl)n1 [CHIR99021] | 4/8 | greater expansion | significant expansion | no mice | 
Dipotassium Bis-peroxo(picolinato)oxovanadate [BpV(pic)] | 0/10 | greater expansion | significant expansion |  | no mice
